Results published in article PMC5766975, “Production of eicosapentaenoic acid by application of a delta-6 desaturase with the highest ALA catalytic activity in algae” (Microbial Cell Factories, 2018).
Read-outs that look alike come from different tables or passages of the source.

Columns and labels:
TpFADS6 [1] = target: T1, TpFADS6 (Thalassiosira pseudonana, UniProt Q4G2T1); set-up: gene desI; details: single substrate fed to Saccharomyces cerevisiae INVSc1 expressing the desaturase; delta-6 desaturation; free acid fed
T1 sequence (Q4G2T1 entry or part of it): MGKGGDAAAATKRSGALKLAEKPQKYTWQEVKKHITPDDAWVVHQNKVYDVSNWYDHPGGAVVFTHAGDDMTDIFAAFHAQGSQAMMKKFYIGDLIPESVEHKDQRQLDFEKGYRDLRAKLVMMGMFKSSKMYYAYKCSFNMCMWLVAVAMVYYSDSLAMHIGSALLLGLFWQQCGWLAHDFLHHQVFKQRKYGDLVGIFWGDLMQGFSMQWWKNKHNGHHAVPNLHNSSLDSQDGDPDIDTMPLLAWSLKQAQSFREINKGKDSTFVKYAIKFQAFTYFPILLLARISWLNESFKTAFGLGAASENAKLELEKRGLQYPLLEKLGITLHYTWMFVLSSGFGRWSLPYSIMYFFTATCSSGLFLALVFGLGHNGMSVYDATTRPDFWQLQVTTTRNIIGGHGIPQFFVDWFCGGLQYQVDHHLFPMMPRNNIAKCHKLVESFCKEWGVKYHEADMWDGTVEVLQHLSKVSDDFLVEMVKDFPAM

TpFADS6 [2] = target: T1, TpFADS6; assay: fatty acid composition of substrate-fed yeast transformants by GC (conversion to GLA); format: cell-based; set-up: gene desI; full-length, synthetic codon-optimised gene, 1455-bp fragment; expressed from pYES2/NT C (vector-encoded tag) in Saccharomyces cerevisiae INVSc1; details: single substrate fed to Saccharomyces cerevisiae INVSc1 expressing the desaturase; delta-6 desaturation; free acid fed

| SMILES | fatty acid composition of substrate-fed yeast transformants by GC (conversion to) (TpFADS6 [1]) | fatty acid composition of substrate-fed yeast transformants by GC (conversion to) (TpFADS6 [2]) |
| --- | --- | --- |
| CC/C=C\C/C=C\C/C=C\CCCCCCCC(=O)O [ALA, α-linolenic acid] | both substrates were catalyzed by TpFADS6 | – |
| CCCCC/C=C\C/C=C\CCCCCCCC(=O)O [LA, linoleic acid] | – | both substrates were catalyzed by TpFADS6 |
